According to the CheMixHub viscosity set:
± gives the uncertainty stated by the source.

Assay: xn = mol fraction of the nth substance listed

O=Cc1ccccc1 + c1ccccc1
viscosity (298.15 K, 101 kPa, x1 = 0.1): 0.655 ± 0.018 mPa·s | viscosity (298.15 K, 101 kPa, x1 = 0.2): 0.714 ± 0.019 mPa·s | viscosity (298.15 K, 101 kPa, x1 = 0.4): 0.847 ± 0.023 mPa·s | viscosity (298.15 K, 101 kPa, x1 = 0.5): 0.928 ± 0.025 mPa·s | viscosity (298.15 K, 101 kPa, x1 = 0.6): 1.012 ± 0.027 mPa·s | viscosity (308.15 K, 101 kPa, x1 = 0.1): 0.583 ± 0.016 mPa·s | viscosity (308.15 K, 101 kPa, x1 = 0.2): 0.625 ± 0.017 mPa·s | viscosity (308.15 K, 101 kPa, x1 = 0.4): 0.742 ± 0.02 mPa·s | viscosity (308.15 K, 101 kPa, x1 = 0.5): 0.809 ± 0.022 mPa·s | viscosity (308.15 K, 101 kPa, x1 = 0.6): 0.885 ± 0.024 mPa·s | viscosity (318.15 K, 101 kPa, x1 = 0.1): 0.509 ± 0.014 mPa·s | viscosity (318.15 K, 101 kPa, x1 = 0.2): 0.551 ± 0.015 mPa·s | viscosity (318.15 K, 101 kPa, x1 = 0.4): 0.667 ± 0.018 mPa·s | viscosity (318.15 K, 101 kPa, x1 = 0.5): 0.711 ± 0.019 mPa·s | viscosity (318.15 K, 101 kPa, x1 = 0.6): 0.773 ± 0.021 mPa·s | viscosity (323.15 K, 101 kPa, x1 = 0.1): 0.477 ± 0.013 mPa·s | viscosity (323.15 K, 101 kPa, x1 = 0.2): 0.517 ± 0.014 mPa·s | viscosity (323.15 K, 101 kPa, x1 = 0.5): 0.665 ± 0.018 mPa·s | viscosity (323.15 K, 101 kPa, x1 = 0.6): 0.724 ± 0.02 mPa·s

CCCCCCCCCCCCO + CCCCCCCO
viscosity (298.15 K, 101.8 kPa, x2 = 0.1535): 14.93 ± 0.55 mPa·s | viscosity (298.15 K, 101.8 kPa, x2 = 0.4063): 11.89 ± 0.53 mPa·s | viscosity (298.15 K, 101.8 kPa, x2 = 0.6158): 9.619 ± 0.49 mPa·s | viscosity (298.15 K, 101.8 kPa, x2 = 0.7897): 7.876 ± 0.49 mPa·s | viscosity (298.15 K, 101.8 kPa, x2 = 0.937): 6.209 ± 0.51 mPa·s | viscosity (308.15 K, 101.8 kPa, x2 = 0.1535): 10.25 ± 0.48 mPa·s | viscosity (308.15 K, 101.8 kPa, x2 = 0.4063): 8.286 ± 0.42 mPa·s | viscosity (308.15 K, 101.8 kPa, x2 = 0.6158): 6.789 ± 0.4 mPa·s | viscosity (308.15 K, 101.8 kPa, x2 = 0.7897): 5.642 ± 0.4 mPa·s | viscosity (308.15 K, 101.8 kPa, x2 = 0.937): 4.516 ± 0.39 mPa·s | viscosity (318.15 K, 101.8 kPa, x2 = 0.1535): 7.217 ± 0.4 mPa·s | viscosity (318.15 K, 101.8 kPa, x2 = 0.4063): 5.917 ± 0.37 mPa·s | viscosity (318.15 K, 101.8 kPa, x2 = 0.6158): 4.913 ± 0.36 mPa·s | viscosity (318.15 K, 101.8 kPa, x2 = 0.7897): 4.132 ± 0.36 mPa·s | viscosity (318.15 K, 101.8 kPa, x2 = 0.937): 3.362 ± 0.36 mPa·s

[Cl-].[Cl-].[Cl-].[Cl-].[Ge+4] + CCOC(C)=O
viscosity (293.15 K, 101 kPa, x2 = 0.1475): 0.576 ± 0.014 mPa·s | viscosity (293.15 K, 101 kPa, x2 = 0.3162): 0.535 ± 0.013 mPa·s | viscosity (293.15 K, 101 kPa, x2 = 0.5235): 0.5 ± 0.013 mPa·s | viscosity (293.15 K, 101 kPa, x2 = 0.6703): 0.481 ± 0.012 mPa·s | viscosity (293.15 K, 101 kPa, x2 = 0.8062): 0.469 ± 0.012 mPa·s | viscosity (303.15 K, 101 kPa, x2 = 0.1475): 0.531 ± 0.013 mPa·s | viscosity (303.15 K, 101 kPa, x2 = 0.3162): 0.486 ± 0.012 mPa·s | viscosity (303.15 K, 101 kPa, x2 = 0.5235): 0.457 ± 0.011 mPa·s | viscosity (303.15 K, 101 kPa, x2 = 0.6703): 0.431 ± 0.011 mPa·s | viscosity (303.15 K, 101 kPa, x2 = 0.8062): 0.416 ± 0.01 mPa·s | viscosity (313.15 K, 101 kPa, x2 = 0.1475): 0.481 ± 0.012 mPa·s | viscosity (313.15 K, 101 kPa, x2 = 0.3162): 0.449 ± 0.011 mPa·s | viscosity (313.15 K, 101 kPa, x2 = 0.5235): 0.406 ± 0.01 mPa·s | viscosity (313.15 K, 101 kPa, x2 = 0.6703): 0.39 ± 0.01 mPa·s | viscosity (313.15 K, 101 kPa, x2 = 0.8062): 0.382 ± 0.01 mPa·s

c1ccc(Nc2ccccc2)cc1 + CC(=O)O
viscosity (323.15 K, 101.33 kPa, x1 = 0.1031): 1.083 ± 0.0088 mPa·s | viscosity (323.15 K, 101.33 kPa, x1 = 0.2023): 1.242 ± 0.01 mPa·s | viscosity (323.15 K, 101.33 kPa, x1 = 0.4039): 2.267 ± 0.02 mPa·s | viscosity (323.15 K, 101.33 kPa, x1 = 0.5079): 2.799 ± 0.026 mPa·s | viscosity (323.15 K, 101.33 kPa, x1 = 0.6113): 3.35 ± 0.033 mPa·s | viscosity (323.15 K, 101.33 kPa, x1 = 0.6724): 3.714 ± 0.037 mPa·s | viscosity (323.15 K, 101.33 kPa, x1 = 0.7895): 4.486 ± 0.049 mPa·s
